Results: US20240228920A1, “Distilled Spirit with modified Alcohol Levels with or without a Functional Ingredient” (priority 2023, published 2024)

How the values were obtained:
MAO A = biological target: T1, MAO A (Homo sapiens, UniProt P21397); assay: MAO A inhibitory activity assay; assay type: biochemical; details: terpene at 0.5% (v/v) in Don Julio Añejo (40% ABV) minus in 40% ethanol
T1 sequence (P21397 1-527): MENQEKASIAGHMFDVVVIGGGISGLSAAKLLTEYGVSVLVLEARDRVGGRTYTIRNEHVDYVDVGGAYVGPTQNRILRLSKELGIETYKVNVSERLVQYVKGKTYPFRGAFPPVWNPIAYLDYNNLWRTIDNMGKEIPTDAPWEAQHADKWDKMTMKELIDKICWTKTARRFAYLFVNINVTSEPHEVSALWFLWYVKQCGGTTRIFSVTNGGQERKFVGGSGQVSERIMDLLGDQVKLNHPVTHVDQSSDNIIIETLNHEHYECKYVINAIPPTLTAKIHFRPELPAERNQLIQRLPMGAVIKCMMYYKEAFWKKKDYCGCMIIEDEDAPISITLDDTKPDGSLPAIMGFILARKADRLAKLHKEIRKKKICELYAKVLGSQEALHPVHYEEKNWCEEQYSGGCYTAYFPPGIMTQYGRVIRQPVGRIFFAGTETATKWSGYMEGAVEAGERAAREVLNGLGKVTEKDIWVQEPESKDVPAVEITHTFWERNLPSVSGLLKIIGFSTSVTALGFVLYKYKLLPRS
Procedure: (§1) U.S. […] The contents of this document are incorporated herein by reference, but briefly, methods that include reverse osmosis and low-pressure evaporation to provide retentates with significant concentrations of these inhibitors are described. In addition, details of assay methods for monoamine oxidase activity (and therefore inhibition thereof) and for ethanol content are provided. The effect of compounds on MAOI activity in tequila was evaluated in the experiment from Table 3.

MAO B = biological target: T2, MAO B (Homo sapiens, UniProt P27338); assay: MAO B inhibitory activity assay; assay type: biochemical; details: terpene at 0.5% (v/v) in Don Julio Añejo (40% ABV) minus in 40% ethanol
T2 sequence (P27338 1-520): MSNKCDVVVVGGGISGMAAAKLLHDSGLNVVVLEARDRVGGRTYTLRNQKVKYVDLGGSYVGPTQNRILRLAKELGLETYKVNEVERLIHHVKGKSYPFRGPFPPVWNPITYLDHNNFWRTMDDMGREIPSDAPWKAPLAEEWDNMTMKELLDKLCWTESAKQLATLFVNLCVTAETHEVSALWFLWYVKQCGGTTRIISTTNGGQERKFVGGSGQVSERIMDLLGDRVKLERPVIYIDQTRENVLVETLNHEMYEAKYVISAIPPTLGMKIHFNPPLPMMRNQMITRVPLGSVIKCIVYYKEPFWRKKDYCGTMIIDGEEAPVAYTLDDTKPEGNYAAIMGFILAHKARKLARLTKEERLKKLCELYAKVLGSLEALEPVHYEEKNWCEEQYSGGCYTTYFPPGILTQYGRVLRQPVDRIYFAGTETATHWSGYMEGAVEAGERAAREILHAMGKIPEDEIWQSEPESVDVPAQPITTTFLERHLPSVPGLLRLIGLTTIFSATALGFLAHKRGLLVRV
Procedure: as §1

Molecule | Δ % Inhibition MAO A (DJA + terpene) − (ETOH + terpene) (MAO A) | Δ % Inhibition MAO B (DJA + terpene) − (ETOH + terpene) (MAO B)
Geramol | 4% | 9%
C=CCc1ccc(O)c(OC)c1 [eugenol] | 1% | 8%
C=C(C)[C@@H]1CCC2=CCC[C@@H](C)[C@]2(C)C1 [valencene] | 9% | 20%
CC1=CCC(=C(C)C)CC1 [terpinolene] | 1% | 9%
C=CC(=C)CCC=C(C)C [β-myrcene] | 5% | 11%
CC(C)=CCCC(C)=CC=O [citral] | 0% | 2%
